Assay [1] addresses RAC-alpha serine/threonine-protein kinase (Homo sapiens, UniProt P31749). As to the kind of experiment: Selectivity interaction (ActivX KiNativ screen (ex vivo kinase selectivity in human PBMCs)) EUB0001619a AKT1. In kind it is cell-based. The conditions noted are these: PBMC, at 1 µM.
Assay [2] deals with Myosin light chain kinase, smooth muscle (Homo sapiens, UniProt Q15746). As to the kind of experiment: Selectivity interaction (ActivX KiNativ screen (ex vivo kinase selectivity in human PBMCs)) EUB0001619a MYLK. The conditions noted are these: PBMC, at 1 µM. The format is cell-based.
Assay [3] has as its target Serine/threonine-protein kinase RIO2 (Homo sapiens) (UniProt Q9BVS4). Description: Selectivity interaction (KinomeScan (DiscoverX)) EUB0001619a RIOK2. The conditions noted are these: at 1 µM.
In assay [4] the target is Leukocyte tyrosine kinase receptor (Homo sapiens, UniProt P29376). Particulars: at 10 µM.
Assay [5] deals with Serine/threonine-protein kinase 32A (Homo sapiens) (UniProt Q8WU08). As to the kind of experiment: Selectivity interaction (KinomeScan (DiscoverX)) EUB0000607a STK32A. Particulars: at 10 µM.
The target of assay [6] is Calcium/calmodulin-dependent protein kinase type II subunit delta (Homo sapiens) (UniProt Q13557). Particulars: at 10 µM.
The target of assay [7] is Vascular endothelial growth factor receptor 3 (Homo sapiens, UniProt P35916). Particulars: at 10 µM.
Assay [8] has as its target T1, Phosphatidylinositol 5-phosphate 4-kinase type-2 gamma (Homo sapiens) (UniProt Q8TBX8).
T1 sequence (whole entry): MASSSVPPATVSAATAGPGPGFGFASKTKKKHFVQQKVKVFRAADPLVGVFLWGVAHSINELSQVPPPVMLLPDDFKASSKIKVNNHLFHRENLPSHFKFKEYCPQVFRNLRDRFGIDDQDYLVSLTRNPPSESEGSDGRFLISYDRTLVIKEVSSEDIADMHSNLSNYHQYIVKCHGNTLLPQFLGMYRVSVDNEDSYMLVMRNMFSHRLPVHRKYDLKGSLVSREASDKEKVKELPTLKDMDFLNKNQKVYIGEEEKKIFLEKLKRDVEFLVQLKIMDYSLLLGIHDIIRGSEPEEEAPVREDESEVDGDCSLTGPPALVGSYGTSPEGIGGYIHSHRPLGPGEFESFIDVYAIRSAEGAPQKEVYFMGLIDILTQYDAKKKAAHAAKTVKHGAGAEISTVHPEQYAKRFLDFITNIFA
As to the kind of experiment: Selectivity interaction (ActivX KiNativ screen (kinase selectivity in THP-1 cell lysates)) EUB0000639a PIP4K2C. In kind it is subcellular. Particulars: lysate, at 0.2 µM.

Assay [9] concerns the target 5'-AMP-activated protein kinase catalytic subunit alpha-1 (Homo sapiens, UniProt Q13131). Description: Selectivity interaction (ActivX KiNativ screen (kinase selectivity in THP-1 cell lysates)) EUB0000639a PRKAA1. In kind it is subcellular. Particulars: lysate, at 1 µM.
Assay [10] concerns the target T2, cGMP-dependent protein kinase 2 (Homo sapiens) (UniProt Q13237).
T2 sequence (whole entry): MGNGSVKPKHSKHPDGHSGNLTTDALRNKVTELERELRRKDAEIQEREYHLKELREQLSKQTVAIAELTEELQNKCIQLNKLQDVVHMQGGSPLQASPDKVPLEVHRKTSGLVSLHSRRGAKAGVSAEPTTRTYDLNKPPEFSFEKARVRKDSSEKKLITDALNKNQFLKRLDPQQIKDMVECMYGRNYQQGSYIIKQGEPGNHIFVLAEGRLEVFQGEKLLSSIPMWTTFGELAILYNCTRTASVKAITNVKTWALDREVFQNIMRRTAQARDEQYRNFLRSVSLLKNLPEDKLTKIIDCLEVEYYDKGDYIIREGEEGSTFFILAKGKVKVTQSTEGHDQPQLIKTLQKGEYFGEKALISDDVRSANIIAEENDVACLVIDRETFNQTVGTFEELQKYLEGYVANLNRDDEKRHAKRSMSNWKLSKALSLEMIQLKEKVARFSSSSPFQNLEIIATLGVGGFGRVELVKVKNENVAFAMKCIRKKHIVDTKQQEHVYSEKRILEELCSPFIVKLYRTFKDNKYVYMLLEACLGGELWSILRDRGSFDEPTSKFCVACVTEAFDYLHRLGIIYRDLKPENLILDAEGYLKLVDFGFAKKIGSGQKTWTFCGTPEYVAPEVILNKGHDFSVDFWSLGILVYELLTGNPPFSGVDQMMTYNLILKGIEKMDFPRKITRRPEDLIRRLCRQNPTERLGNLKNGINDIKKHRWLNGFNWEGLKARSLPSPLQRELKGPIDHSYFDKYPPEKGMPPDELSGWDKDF
Description: Selectivity interaction (Kinase panel (Invitrogen)) EUB0000639a PRKG2. The conditions noted are these: at 200 nM.

Assay [11] deals with Interferon-induced, double-stranded RNA-activated protein kinase (Homo sapiens) (UniProt P19525). As to the kind of experiment: Selectivity interaction (Ambit KINOMEscan and KiNATiv profiling in Jurkat cells) EUB0000090b EIF2AK2. The format is cell-based. The conditions noted are these: at 1 µM.
The target in assay [12] is T3, Protein kinase C zeta type (Homo sapiens) (UniProt Q05513).
T3 sequence (whole entry): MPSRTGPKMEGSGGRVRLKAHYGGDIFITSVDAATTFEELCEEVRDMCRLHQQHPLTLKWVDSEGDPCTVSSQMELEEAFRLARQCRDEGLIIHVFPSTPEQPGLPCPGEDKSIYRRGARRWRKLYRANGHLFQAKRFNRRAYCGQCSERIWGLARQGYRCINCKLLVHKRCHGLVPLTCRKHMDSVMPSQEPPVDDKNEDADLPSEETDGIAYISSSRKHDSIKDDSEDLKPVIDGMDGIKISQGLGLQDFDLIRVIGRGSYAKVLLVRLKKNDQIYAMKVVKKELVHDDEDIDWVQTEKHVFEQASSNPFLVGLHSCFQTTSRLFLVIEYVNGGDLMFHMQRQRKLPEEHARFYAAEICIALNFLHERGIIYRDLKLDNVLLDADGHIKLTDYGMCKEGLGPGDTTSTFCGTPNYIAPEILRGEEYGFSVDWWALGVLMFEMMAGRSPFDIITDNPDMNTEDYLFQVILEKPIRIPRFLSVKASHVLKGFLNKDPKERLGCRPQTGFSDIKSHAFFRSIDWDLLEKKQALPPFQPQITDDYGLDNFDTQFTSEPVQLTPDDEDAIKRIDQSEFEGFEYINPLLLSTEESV
Description: Selectivity interaction (Upstate Kinase Profiler service (Millipore)) EUB0000056c PRKCZ. Particulars: at 1 µM.

The target in assay [13] is Transient receptor potential cation channel subfamily M member 6 (Homo sapiens) (UniProt Q9BX84). As to the kind of experiment: Selectivity interaction (KinomeScan (DiscoverX)) EUB0001079a TRPM6. The conditions noted are these: at 1 µM.
For assay [14], the target named is Diacylglycerol kinase alpha (Homo sapiens) (UniProt P23743). As to the kind of experiment: Selectivity interaction (Kinase panel (KiNativ target engagement assay in Jurkat cells)) EUB0001635a DGKA. The format is cell-based. The conditions noted are these: Selectivity number of off-targets 0.0, Selectivity number of targets 233.0, Source Knowledge https://www.sciencedirect.com/science/article/pii/S2451945619300674?via%3Dihub, at 1 µM.

The structures appear in SMILES notation.

Sequence of Calcium/calmodulin-dependent protein kinase type II subunit delta (Homo sapiens) (Q13557 whole entry): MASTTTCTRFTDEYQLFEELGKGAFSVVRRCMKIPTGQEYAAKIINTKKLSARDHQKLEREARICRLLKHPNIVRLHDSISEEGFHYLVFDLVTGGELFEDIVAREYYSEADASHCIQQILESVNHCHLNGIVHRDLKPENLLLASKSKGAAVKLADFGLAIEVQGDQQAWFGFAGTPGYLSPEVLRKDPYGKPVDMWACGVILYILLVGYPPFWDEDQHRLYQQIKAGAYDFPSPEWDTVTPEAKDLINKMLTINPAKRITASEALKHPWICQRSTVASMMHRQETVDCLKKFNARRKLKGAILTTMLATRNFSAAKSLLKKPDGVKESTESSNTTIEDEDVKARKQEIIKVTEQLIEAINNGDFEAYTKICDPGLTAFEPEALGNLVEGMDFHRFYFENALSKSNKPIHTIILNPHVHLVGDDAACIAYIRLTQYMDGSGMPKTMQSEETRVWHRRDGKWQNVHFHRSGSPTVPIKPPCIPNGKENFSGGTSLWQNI
Sequence of Diacylglycerol kinase alpha (Homo sapiens) (P23743 whole entry): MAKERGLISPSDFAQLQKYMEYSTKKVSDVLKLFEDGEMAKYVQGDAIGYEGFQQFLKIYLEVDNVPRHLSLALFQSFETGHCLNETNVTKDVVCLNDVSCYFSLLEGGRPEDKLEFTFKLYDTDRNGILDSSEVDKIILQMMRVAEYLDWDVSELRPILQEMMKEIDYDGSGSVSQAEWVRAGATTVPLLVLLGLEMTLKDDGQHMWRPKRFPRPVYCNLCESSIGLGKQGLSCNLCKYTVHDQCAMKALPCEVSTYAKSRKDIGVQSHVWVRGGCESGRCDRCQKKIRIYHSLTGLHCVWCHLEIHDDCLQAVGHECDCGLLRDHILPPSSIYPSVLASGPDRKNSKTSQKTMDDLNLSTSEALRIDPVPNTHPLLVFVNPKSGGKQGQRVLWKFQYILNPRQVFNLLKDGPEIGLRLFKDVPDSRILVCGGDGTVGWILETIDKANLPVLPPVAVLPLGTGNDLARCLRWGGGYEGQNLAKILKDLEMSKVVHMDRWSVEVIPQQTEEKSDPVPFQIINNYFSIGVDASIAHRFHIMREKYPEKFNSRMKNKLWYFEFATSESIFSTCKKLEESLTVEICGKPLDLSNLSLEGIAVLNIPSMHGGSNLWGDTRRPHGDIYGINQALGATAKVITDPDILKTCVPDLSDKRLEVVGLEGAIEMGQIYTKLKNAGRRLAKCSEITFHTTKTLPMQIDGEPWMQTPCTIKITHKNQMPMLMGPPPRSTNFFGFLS
Sequence of Serine/threonine-protein kinase RIO2 (Homo sapiens) (Q9BVS4 whole entry, looked up): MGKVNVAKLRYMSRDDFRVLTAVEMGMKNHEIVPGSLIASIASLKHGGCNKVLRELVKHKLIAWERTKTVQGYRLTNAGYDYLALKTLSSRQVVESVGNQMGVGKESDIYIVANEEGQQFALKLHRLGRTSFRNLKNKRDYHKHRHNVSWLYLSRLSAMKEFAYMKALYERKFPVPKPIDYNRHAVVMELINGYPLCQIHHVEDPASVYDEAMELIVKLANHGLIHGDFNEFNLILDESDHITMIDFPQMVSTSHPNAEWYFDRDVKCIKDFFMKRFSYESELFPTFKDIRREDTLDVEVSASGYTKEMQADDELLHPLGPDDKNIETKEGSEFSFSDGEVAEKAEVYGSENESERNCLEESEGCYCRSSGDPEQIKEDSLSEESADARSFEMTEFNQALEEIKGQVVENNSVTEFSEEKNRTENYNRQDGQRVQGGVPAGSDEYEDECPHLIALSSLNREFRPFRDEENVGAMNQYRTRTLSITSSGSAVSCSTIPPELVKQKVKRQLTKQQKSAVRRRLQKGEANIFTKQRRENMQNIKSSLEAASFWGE
Sequence of 5'-AMP-activated protein kinase catalytic subunit alpha-1 (Q13131 whole entry, looked up): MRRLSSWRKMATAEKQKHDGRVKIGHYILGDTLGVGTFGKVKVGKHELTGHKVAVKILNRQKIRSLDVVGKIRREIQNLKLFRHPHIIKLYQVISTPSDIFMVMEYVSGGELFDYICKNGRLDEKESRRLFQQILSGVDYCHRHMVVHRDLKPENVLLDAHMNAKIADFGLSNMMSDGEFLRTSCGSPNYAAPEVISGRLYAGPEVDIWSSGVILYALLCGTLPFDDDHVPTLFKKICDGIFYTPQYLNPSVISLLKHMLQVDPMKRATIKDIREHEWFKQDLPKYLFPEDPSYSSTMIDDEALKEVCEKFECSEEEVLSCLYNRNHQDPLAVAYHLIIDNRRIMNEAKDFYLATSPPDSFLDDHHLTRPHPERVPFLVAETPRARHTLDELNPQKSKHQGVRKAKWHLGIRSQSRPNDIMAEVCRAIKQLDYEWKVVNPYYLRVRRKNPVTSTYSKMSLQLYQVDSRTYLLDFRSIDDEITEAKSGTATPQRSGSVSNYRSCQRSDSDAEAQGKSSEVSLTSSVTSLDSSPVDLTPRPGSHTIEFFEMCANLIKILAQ
Sequence of Interferon-induced, double-stranded RNA-activated protein kinase (Homo sapiens) (P19525 whole entry): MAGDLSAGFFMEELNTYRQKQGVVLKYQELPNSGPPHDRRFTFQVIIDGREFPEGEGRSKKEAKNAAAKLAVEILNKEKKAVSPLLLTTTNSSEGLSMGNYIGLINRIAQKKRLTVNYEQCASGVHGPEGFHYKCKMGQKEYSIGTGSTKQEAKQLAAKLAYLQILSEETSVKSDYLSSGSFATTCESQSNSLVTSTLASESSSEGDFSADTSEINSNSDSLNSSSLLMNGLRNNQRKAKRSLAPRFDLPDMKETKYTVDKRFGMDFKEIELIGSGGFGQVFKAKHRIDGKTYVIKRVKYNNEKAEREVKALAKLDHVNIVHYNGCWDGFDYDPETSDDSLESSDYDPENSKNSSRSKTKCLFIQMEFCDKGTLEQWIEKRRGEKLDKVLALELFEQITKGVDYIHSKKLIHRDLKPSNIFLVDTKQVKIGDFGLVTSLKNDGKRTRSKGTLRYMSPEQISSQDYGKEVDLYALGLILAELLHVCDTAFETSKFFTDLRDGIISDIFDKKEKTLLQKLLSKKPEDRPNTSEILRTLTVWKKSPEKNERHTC
Sequence of Leukocyte tyrosine kinase receptor (P29376 whole entry): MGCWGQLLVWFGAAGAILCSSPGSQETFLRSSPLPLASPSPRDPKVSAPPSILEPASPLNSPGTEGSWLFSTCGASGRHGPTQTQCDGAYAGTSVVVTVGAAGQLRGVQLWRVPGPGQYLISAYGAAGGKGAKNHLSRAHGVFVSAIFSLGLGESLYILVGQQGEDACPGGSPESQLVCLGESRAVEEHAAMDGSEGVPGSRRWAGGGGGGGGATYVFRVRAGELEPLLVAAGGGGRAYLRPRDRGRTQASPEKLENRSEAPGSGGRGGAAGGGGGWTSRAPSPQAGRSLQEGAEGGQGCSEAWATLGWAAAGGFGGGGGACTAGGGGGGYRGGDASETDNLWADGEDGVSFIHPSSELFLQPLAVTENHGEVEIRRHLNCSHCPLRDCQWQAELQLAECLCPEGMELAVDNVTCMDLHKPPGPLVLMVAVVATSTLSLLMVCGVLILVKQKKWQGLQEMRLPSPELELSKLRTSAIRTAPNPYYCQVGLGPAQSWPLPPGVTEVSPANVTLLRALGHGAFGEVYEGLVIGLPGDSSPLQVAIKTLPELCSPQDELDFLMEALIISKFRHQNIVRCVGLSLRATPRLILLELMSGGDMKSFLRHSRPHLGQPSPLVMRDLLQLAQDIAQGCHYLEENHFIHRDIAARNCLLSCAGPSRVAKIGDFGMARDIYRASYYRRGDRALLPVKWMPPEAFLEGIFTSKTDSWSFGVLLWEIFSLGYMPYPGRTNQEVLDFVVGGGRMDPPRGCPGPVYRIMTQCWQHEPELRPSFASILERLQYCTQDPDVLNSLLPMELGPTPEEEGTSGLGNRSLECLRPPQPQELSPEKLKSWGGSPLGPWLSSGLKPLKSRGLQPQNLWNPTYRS
Sequence of Serine/threonine-protein kinase 32A (Homo sapiens) (Q8WU08 whole entry): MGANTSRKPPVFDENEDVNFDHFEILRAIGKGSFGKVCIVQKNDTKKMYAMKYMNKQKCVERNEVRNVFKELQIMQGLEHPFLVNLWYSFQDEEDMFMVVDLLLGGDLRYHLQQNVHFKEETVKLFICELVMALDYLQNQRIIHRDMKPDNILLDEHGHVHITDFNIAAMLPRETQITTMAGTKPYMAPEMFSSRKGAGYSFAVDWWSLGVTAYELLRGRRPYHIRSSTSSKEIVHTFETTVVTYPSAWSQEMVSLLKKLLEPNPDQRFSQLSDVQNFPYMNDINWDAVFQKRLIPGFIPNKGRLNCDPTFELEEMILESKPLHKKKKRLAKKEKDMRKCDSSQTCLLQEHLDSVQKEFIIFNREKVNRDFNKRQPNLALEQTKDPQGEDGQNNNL
Sequence of RAC-alpha serine/threonine-protein kinase (P31749 whole entry): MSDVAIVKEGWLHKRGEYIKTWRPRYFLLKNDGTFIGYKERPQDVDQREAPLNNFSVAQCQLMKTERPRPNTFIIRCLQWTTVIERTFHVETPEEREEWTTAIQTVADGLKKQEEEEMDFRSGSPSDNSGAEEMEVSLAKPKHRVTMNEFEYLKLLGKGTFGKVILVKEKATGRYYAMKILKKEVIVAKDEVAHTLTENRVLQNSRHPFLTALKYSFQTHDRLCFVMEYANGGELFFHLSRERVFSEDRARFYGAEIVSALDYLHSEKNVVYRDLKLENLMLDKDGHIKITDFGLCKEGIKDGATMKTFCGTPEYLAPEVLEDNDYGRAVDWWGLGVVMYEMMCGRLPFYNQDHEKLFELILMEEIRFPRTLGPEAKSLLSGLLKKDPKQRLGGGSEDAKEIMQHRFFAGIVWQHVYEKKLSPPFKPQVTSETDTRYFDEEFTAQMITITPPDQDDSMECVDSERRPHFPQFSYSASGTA

For `N#Cc1cccc(-c2c[nH]c3ncnc(N4CCOCC4)c23)c1`, the figures for the % of inhibition in [1] and in assay [2] were -6% and 13%, respectively. Further, the % of control in assay [3] was determined as 75%.

For the compound `CCN(CC)CCCCNc1ncc2cc(-c3cc(OC)cc(OC)c3)c(NC(=O)NC(C)(C)C)nc2n1`, the % of control in [4] turned out to be 100%. For `CNC(=O)Nc1ccc(-c2nc(N3CC4CCC(C3)O4)c3cnn(C4CCC5(CC4)OCCO5)c3n2)cc1`, the % of control in [5] came to 99%. As for `Cc1cc([C@@H](C)Nc2ccccc2C(=O)O)c2nc(N3CCOCC3)cc(=O)n2c1` [AZD-6482], the % of control in [6] and in assay [7] was 95% each time. For the compound `CC[C@@H]1[C@H](F)C(=O)N[C@@H]1COc1nccc2cc(C(N)=O)c(OC)cc12` [ZIMLOVISERTIB], the % of inhibition in [8] was found to be 51.3%; in [9], 5.9%; in [10], 10.5%. For the compound `CN(C)C/C=C/C(=O)Nc1ccc(C(=O)N2CCCC(Nc3ncc(Cl)c(-c4c[nH]c5ccccc45)n3)C2)cc1` (centres undefined), in [11], the % of control worked out at 92%.

Turning to `Cc1ccc(-c2ccc3c(ccc4sc5c(c43)NC[C@@H](C)NC5=O)n2)cn1`, in assay [12], the % of inhibition was -8%. `Nc1cnc(N2CCc3cc(S(=O)(=O)Nc4c(F)cc(Cl)cc4F)cc(N4CCCC4=O)c32)nc1` [TP-020n] registered a % of control in [13] of 93%. Consider `C=CC(=O)Nc1ccc(C(=O)Nc2[nH]nc3c2CN(C(=O)N[C@H](CN(C)C)c2ccccc2)C3(C)C)cc1`, for which, in [14], the % of engagement was -18.9%.
